Reference: ChEMBL document CHEMBL4265899, “Trisubstituted thiazoles as potent and selective inhibitors of Plasmodium falciparum protein kinase G (PfPKG)” (Bioorg Med Chem Lett, 2018)

Experiments:
[1] = biological target: Mitogen-activated protein kinase 3 (Homo sapiens) (UniProt P27361); test: Inhibition of human ERK1 at 100 nM
[2] = Metabolic stability in human liver microsomes assessed as compound remaining after 40 mins; type: ADME, microsome; settings: read-out: Stability
[3] = Lipophilicity, log D of the compound at pH 7.4; settings: buffer
[4] = biological target: MAP kinase-activated protein kinase 5 (Homo sapiens) (UniProt Q8IW41); test: Inhibition of human PRAK at 100 nM
[5] = biological target: Serine/threonine-protein kinase PAK 4 (Homo sapiens) (UniProt O96013); test: Inhibition of human PAK4 at 100 nM
Plasmodium falciparum = test: Antimalarial activity against Plasmodium falciparum after 48 hrs by microbeta scintillation counting-based [3H]-hypoxanthine incorporation assay; type: functional, organism-based
[6] = biological target: Mitogen-activated protein kinase kinase kinase 11 (Homo sapiens) (UniProt Q16584); test: Inhibition of human MLK3 at 100 nM
[7] = biological target: Mitogen-activated protein kinase 9 (Homo sapiens) (UniProt P45984); test: Inhibition of human JNK2 at 100 nM
[8] = biological target: RAC-beta serine/threonine-protein kinase (Homo sapiens) (UniProt P31751); test: Inhibition of human PKBbeta at 100 nM
[9] = biological target: Serine/threonine-protein kinase 3 (Homo sapiens) (UniProt Q13188); test: Inhibition of human MST2 at 100 nM
[10] = biological target: Tyrosine-protein kinase Yes (Homo sapiens) (UniProt P07947); test: Inhibition of human YES1 at 100 nM
Chain of Tyrosine-protein kinase Yes (Homo sapiens) (P07947 2-543 limits assumed): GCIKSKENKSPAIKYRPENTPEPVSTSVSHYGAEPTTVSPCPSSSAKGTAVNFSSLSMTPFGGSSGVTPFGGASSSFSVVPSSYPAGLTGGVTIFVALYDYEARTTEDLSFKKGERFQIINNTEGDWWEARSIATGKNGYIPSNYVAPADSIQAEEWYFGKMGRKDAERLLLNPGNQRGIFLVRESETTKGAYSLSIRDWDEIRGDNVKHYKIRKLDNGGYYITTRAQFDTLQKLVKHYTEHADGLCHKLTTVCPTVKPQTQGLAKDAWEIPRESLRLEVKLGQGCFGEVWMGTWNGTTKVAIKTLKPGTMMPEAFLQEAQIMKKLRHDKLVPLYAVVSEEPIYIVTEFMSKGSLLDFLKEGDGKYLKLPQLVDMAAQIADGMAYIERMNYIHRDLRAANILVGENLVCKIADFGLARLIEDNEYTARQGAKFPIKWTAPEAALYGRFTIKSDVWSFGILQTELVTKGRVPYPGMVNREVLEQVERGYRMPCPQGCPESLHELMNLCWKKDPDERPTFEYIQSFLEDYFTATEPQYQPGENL

[11] = biological target: Mitogen-activated protein kinase kinase kinase kinase 2 (Homo sapiens) (UniProt Q12851); test: Inhibition of human GCK at 100 nM
Chain of Mitogen-activated protein kinase kinase kinase kinase 2 (Homo sapiens) (Q12851 whole entry): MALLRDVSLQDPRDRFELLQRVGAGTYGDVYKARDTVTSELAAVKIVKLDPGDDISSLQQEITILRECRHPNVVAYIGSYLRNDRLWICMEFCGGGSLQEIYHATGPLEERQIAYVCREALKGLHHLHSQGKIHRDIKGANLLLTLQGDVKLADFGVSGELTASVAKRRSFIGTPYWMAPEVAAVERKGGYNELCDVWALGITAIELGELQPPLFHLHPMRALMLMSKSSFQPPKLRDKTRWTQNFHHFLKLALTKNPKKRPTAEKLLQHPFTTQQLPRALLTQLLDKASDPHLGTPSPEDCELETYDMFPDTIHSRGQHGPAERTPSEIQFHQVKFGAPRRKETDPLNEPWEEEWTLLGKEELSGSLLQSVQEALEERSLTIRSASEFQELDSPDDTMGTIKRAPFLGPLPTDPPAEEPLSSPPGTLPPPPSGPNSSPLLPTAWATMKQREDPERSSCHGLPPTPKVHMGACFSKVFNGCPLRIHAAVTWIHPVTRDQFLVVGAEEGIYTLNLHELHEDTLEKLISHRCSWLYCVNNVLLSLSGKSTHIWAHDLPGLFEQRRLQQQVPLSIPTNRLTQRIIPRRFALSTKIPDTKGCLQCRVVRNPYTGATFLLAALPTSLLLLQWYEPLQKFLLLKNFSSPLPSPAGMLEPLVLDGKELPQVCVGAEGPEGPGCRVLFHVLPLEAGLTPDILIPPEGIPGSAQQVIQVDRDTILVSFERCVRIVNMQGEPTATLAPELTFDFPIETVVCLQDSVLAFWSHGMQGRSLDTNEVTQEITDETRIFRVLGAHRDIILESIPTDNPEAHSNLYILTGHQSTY

[12] = biological target: Aurora kinase A (Homo sapiens) (UniProt O14965); test: Inhibition of human Aurora A at 100 nM
[13] = biological target: Maternal embryonic leucine zipper kinase (Homo sapiens) (UniProt Q14680); test: Inhibition of human MELK at 100 nM
[14] = biological target: Misshapen-like kinase 1 (Homo sapiens) (UniProt Q8N4C8); test: Inhibition of human MINK1 at 100 nM
[15] = biological target: Serine/threonine-protein kinase Nek6 (Homo sapiens) (UniProt Q9HC98); test: Inhibition of human NEK6 at 100 nM
Chain of Serine/threonine-protein kinase Nek6 (Homo sapiens) (Q9HC98 whole entry): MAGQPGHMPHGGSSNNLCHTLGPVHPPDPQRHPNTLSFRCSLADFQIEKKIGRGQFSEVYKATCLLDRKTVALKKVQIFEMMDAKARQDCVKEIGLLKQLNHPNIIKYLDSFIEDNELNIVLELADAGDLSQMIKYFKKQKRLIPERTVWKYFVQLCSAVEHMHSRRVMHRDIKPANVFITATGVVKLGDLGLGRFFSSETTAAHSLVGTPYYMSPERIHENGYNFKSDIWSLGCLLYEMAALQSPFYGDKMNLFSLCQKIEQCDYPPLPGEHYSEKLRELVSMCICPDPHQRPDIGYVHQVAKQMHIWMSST

[16] = biological target: Mitogen-activated protein kinase kinase kinase 1 (Homo sapiens) (UniProt Q13233); test: Inhibition of human MEKK1 at 100 nM
[17] = biological target: Interleukin-1 receptor-associated kinase 4 (Homo sapiens) (UniProt Q9NWZ3); test: Inhibition of human IRAK4 at 100 nM
Chain of Interleukin-1 receptor-associated kinase 4 (Homo sapiens) (Q9NWZ3 whole entry): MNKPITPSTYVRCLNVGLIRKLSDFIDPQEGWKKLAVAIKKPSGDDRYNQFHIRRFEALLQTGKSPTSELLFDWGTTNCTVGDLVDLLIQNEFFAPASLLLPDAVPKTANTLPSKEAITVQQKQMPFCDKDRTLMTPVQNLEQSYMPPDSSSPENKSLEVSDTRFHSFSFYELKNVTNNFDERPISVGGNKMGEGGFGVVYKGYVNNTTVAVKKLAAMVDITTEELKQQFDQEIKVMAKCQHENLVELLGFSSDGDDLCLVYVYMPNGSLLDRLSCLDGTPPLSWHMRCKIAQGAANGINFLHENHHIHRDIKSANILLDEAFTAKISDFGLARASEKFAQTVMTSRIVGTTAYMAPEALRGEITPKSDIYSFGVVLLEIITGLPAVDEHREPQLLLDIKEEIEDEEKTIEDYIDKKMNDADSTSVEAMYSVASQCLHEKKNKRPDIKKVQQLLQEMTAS

[18] = biological target: Serine/threonine-protein kinase N2 (Homo sapiens) (UniProt Q16513); test: Inhibition of human PRK2 at 100 nM
[19] = biological target: Mitogen-activated protein kinase kinase kinase 9 (Homo sapiens) (UniProt P80192); test: Inhibition of human MLK1 at 100 nM
Chain of Mitogen-activated protein kinase kinase kinase 9 (Homo sapiens) (P80192 whole entry, looked up): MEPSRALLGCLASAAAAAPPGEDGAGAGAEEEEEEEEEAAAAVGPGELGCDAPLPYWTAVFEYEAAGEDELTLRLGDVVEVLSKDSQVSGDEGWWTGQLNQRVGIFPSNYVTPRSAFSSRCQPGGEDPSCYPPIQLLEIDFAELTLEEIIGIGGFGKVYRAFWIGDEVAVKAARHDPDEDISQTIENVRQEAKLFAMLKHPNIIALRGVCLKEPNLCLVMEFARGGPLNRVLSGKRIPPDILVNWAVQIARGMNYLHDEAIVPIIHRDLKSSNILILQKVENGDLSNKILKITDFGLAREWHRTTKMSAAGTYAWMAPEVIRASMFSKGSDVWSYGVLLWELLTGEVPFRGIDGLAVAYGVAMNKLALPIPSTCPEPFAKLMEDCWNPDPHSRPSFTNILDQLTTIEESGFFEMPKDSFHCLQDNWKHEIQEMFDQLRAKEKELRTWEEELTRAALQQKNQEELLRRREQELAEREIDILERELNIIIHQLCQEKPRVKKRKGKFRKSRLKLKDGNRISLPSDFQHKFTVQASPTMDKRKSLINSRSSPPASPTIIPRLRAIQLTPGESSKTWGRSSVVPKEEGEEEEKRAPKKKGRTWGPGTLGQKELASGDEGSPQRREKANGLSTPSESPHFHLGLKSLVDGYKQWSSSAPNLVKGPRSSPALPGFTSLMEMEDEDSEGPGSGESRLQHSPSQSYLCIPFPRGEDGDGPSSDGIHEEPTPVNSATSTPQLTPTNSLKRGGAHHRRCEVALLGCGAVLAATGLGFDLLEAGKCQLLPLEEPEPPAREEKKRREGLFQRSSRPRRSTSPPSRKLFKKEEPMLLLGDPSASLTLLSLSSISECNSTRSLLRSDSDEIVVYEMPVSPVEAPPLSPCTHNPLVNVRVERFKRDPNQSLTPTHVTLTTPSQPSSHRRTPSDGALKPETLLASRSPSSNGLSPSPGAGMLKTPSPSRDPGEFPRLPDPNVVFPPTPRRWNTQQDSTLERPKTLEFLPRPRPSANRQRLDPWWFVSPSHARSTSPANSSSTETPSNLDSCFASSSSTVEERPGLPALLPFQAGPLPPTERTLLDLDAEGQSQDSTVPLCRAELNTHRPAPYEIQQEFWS

[20] = biological target: Receptor-interacting serine/threonine-protein kinase 2 (Homo sapiens) (UniProt O43353); test: Inhibition of human RIPK2 at 100 nM
[21] = biological target: MAP/microtubule affinity-regulating kinase 3 (Homo sapiens) (UniProt P27448); test: Inhibition of human MARK3 at 100 nM
[22] = biological target: Serine/threonine-protein kinase BRSK2 (Homo sapiens) (UniProt Q8IWQ3); test: Inhibition of human BRSK2 at 100 nM
Chain of Serine/threonine-protein kinase BRSK2 (Homo sapiens) (Q8IWQ3 whole entry): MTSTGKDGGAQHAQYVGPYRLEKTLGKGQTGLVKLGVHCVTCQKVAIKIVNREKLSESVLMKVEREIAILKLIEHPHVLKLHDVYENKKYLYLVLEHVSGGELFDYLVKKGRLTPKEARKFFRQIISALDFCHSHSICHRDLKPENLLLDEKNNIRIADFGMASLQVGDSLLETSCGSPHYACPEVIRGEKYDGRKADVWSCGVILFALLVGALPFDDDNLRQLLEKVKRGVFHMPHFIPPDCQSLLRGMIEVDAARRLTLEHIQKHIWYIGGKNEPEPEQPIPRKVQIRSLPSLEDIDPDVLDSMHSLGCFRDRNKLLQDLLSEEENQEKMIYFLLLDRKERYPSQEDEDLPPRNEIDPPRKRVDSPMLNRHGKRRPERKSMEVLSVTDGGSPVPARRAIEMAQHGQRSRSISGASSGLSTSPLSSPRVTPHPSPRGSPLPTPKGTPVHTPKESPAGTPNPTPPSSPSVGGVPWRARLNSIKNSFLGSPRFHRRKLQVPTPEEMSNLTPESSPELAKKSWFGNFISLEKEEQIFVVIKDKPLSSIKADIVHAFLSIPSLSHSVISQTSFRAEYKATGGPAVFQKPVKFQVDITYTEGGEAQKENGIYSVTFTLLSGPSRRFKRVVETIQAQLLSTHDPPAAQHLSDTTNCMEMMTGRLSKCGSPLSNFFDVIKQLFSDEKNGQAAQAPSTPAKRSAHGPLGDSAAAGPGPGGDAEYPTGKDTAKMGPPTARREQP

[23] = biological target: 3-phosphoinositide-dependent protein kinase 1 (Homo sapiens) (UniProt O15530); test: Inhibition of human PDK1 at 100 nM
Chain of 3-phosphoinositide-dependent protein kinase 1 (Homo sapiens) (O15530 whole entry): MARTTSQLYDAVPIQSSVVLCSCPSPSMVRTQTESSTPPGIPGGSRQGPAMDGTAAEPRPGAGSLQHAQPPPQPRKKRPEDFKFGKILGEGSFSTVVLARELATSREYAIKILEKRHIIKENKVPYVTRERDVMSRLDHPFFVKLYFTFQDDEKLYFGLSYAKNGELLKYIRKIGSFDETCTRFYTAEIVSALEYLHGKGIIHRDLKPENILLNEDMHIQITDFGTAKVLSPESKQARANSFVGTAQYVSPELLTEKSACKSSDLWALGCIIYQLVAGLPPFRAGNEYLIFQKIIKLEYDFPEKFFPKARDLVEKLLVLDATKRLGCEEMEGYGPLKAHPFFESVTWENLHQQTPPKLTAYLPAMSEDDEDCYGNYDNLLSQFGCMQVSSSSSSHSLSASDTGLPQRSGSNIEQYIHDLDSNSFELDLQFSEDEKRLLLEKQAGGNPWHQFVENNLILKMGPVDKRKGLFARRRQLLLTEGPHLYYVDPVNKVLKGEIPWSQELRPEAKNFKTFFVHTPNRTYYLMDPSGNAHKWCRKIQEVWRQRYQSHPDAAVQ

[24] = biological target: NUAK family SNF1-like kinase 1 (Homo sapiens) (UniProt O60285); test: Inhibition of human NUAK1 at 100 nM
[25] = biological target: Tyrosine-protein kinase CSK (Homo sapiens) (UniProt P41240); test: Inhibition of human CSK at 100 nM
[26] = biological target: Homeodomain-interacting protein kinase 2 (Homo sapiens) (UniProt Q9H2X6); test: Inhibition of human HIPK2 at 100 nM
[27] = biological target: Serine/threonine-protein kinase TBK1 (Homo sapiens) (UniProt Q9UHD2); test: Inhibition of human TBK1 at 100 nM
[28] = biological target: Glycogen synthase kinase-3 beta (Homo sapiens) (UniProt P49841); test: Inhibition of human GSK3beta at 100 nM
[29] = biological target: Calcium/calmodulin-dependent protein kinase kinase 2 (Homo sapiens) (UniProt Q96RR4); test: Inhibition of human CAMKKb at 100 nM
[30] = biological target: Myosin light chain kinase, smooth muscle (Homo sapiens) (UniProt Q15746); test: Inhibition of human SmMLCK at 100 nM
[31] = biological target: Insulin-like growth factor 1 receptor (Homo sapiens) (UniProt P08069); test: Inhibition of human IGF1R at 100 nM
[32] = biological target: Ephrin type-A receptor 2 (Homo sapiens) (UniProt P29317); test: Inhibition of human EPHA2 at 100 nM
[33] = biological target: T1, Inhibitor of nuclear factor kappa-B kinase subunit beta (Homo sapiens) (UniProt O14920); settings: at 100 nM
T1 sequence (whole entry): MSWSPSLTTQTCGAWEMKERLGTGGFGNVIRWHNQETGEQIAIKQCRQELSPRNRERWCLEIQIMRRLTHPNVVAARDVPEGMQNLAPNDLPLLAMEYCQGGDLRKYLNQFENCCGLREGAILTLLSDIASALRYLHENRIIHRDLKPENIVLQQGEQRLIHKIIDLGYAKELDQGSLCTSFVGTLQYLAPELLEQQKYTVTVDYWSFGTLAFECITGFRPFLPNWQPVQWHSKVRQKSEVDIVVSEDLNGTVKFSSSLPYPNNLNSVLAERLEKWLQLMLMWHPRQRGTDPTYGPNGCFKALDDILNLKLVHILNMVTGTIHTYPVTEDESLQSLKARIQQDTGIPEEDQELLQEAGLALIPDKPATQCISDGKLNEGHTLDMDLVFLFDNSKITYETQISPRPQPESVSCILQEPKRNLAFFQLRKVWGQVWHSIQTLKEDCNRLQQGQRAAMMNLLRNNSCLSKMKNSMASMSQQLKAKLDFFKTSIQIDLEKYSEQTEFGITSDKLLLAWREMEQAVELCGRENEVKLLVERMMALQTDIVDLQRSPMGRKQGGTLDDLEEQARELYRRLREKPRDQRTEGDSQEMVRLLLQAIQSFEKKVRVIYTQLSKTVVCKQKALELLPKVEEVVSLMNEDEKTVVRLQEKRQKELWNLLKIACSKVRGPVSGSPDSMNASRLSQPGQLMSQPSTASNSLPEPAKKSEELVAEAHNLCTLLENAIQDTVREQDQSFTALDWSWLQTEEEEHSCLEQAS
Description: Inhibition of human IKKb at 100 nM

[34] = biological target: Mitogen-activated protein kinase 14 (Homo sapiens) (UniProt Q16539); test: Inhibition of human p38a MAPK at 100 nM
Chain of Mitogen-activated protein kinase 14 (Homo sapiens) (Q16539 whole entry): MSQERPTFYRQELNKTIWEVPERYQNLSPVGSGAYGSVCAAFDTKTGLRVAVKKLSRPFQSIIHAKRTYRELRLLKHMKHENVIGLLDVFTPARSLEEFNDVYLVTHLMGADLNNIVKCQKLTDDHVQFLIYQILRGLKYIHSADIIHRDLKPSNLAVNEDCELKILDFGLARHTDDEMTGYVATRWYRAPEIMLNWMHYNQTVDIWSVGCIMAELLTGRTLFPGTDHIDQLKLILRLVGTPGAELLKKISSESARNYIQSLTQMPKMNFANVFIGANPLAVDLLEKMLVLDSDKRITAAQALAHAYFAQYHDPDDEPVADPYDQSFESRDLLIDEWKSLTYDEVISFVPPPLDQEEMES

[35] = biological target: Receptor tyrosine-protein kinase erbB-4 (Homo sapiens) (UniProt Q15303); test: Inhibition of human HER4 at 100 nM

Compound | inhibition [1] [%] | remaining at 40 min [2] [%] | logD [3] | inhibition [4] [%] | inhibition [5] [%] | EC50 (Plasmodium falciparum) [nM] | inhibition [6] [%] | inhibition [7] [%] | inhibition [8] [%] | inhibition [9] [%] | inhibition [10] [%] | inhibition [11] [%] | inhibition [12] [%] | inhibition [13] [%] | inhibition [14] [%] | inhibition [15] [%] | inhibition [16] [%] | inhibition [17] [%] | inhibition [18] [%] | inhibition [19] [%] | further results
CN1CCC(c2nc(-c3ccc(F)c(NS(C)(=O)=O)c3)c(-c3ccnc(NCC4CC4)n3)s2)CC1 | < 70 | 95 | 1.9 | < 70 | < 70 | 113 | < 70 | < 70 | < 70 | < 70 | < 70 | < 70 | < 70 | < 70 | < 70 | < 70 | < 70 | < 70 | < 70 | < 70 | inhibition [20]: < 70%; inhibition [21]: < 70%; inhibition [22]: < 70%; inhibition [23]: < 70%; inhibition [24]: < 70%; inhibition [25]: < 70%; inhibition [26]: < 70%; inhibition [27]: < 70%; inhibition [28]: < 70%; inhibition [29]: < 70%; inhibition [30]: < 70%; inhibition [31]: < 70%; inhibition [32]: < 70%; inhibition [33]: < 70%; inhibition [34]: < 70%; inhibition [35]: < 70%
CN1CCC(c2nc(-c3cccc(S(C)(=O)=O)c3)c(-c3ccnc(Nc4ccc(N5CCNCC5)cc4)n3)s2)CC1 | < 70 | 84 | 0.3 | < 70 | < 70 | 105 | < 70 | < 70 | < 70 | < 70 | < 70 | < 70 | < 70 | < 70 | < 70 | < 70 | < 70 | < 70 | < 70 | < 70 | inhibition [20]: 70 to 90%; inhibition [21]: < 70%; inhibition [22]: < 70%; inhibition [23]: < 70%; inhibition [24]: < 70%; inhibition [25]: < 70%; inhibition [26]: < 70%; inhibition [27]: < 70%; inhibition [28]: < 70%; inhibition [29]: < 70%; inhibition [30]: < 70%; inhibition [31]: < 70%; inhibition [32]: < 70%; inhibition [33]: < 70%; inhibition [34]: < 70%; inhibition [35]: > 90%
